Measured values published in US20130303373A1, “USE OF A COMPOSITION FOR THE INCREASE OF CROP YIELD” (GLOBACHEM, priority 2010, published 2013).

What was measured:
[1] = tested on: mature apple trees of the variety Jonagold, (mutant Jonagored); experiment: Yield increase with apple (fruit set and fruit size after spraying); assay type: in vivo
Description: This experiment was performed on mature apple trees of the variety Jonagold, (mutant Jonagored). The sprayings were performed with an atomizer, each time applying an amount of 300 liter of water per hectare.
S-abscisic acid (ABA) was applied alone as well as in combination with glutamine. The applications were started around the end of flowering and were repeated every 10 to 14 days. ABA was first applied in two consecutive treatments, each time using a concentration of 3.3 ppm wt, and thus in a dosing of 1.0 g/ha. The composition with glutamine was applied until the end of the growing season, and with a concentration of 50 ppm wt, and thus in a dosing of 15 g/ha. ABA was also in this test applied only twice, on April 24 and May 7. The applications of glutamine were started around the end of flowering and were repeated every 7 to 14 days, depending on the weather conditions. In total there were 7 treatments, more precisely on April 24, May 7, May 14, May 20, June 9, June 16 and June 24. Immediately after the treatments, on June 25, also the average fruit diameter was determined.

winter wheat = experiment: Yield increase with wheat (ear and grain parameters); assay type: in vivo
Description: This experiment was performed on winter wheat. ABA was applied to the winter wheat in two different doses, respectively 2 and 4 gram/hectare. The dose of 2 gram was repeated in combination with 5 g/ha of histidine.
The length of the ears (expressed in mm), the number of filled spikelets, the average number of grains counted per 50 ears, and as a quality parameter also the kernel weight of 1000 […] (“1000 kernel wt”) were determined.

CC1=CC(=O)CC(C)(C)[C@@]1(O)/C=C/C(C)=C/C(=O)O [ABA, S-abscisic acid]
Fruit diameter (mm) on June 25 ([1]; ABA 2 treatments at 1.0 g/ha, glutamine 7 treatments at 15 g/ha, measured June 25): 43.8 mm
Nr of fruits per cluster ([1]; ABA 2 treatments at 3.3 ppm wt (1.0 g/ha), glutamine 7 treatments at 50 ppm wt (15 g/ha), 300 l water/ha): 0.80
1000 kernel wt (gram) (winter wheat; ABA 2 g/ha): 43.6 gram
Ear Length (mm) (winter wheat; ABA 2 g/ha): 75 mm
Nr. filled spikelets (winter wheat; ABA 2 g/ha): 9.9
Nr. grains/50 ears (winter wheat; ABA 2 g/ha): 72.4
1000 kernel wt (gram) (winter wheat; ABA 4 g/ha): 44.8 gram
Ear Length (mm) (winter wheat; ABA 4 g/ha): 78 mm
Nr. filled spikelets (winter wheat; ABA 4 g/ha): 10.2
Nr. grains/50 ears (winter wheat; ABA 4 g/ha): 84.7
